Data as given in patent US12077537B2 (Gilead Sciences, Inc., priority 2020, dated 2024).

tested on: HIV-IIIb; assay: Antiviral assay in MT4 cells; format: cell-based; settings: Human immunodeficiency virus 1, MT4, 120 h; MT-4 cells mixed with HIV-IIIb at m.o.i. 0.003; 5 days at 37° C.; CellTiter-Glo luminescence; 50% decrease in signal, a measure of HIV-1 replication
Outline: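 MT-4 cells were infected with HIV-IIIb at m.o.i. 0.003 for 1 hour, then added to 3-fold serially diluted compound (10 concentrations, quadruplicate) in medium with 10% FBS. After 5 days at 37° C, cell viability was read by CellTiter-Glo chemiluminescence.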

| Compound | EC50 |
| --- | --- |
| CC1(O)CN(c2nc3nc([C@H](Cc4cc(F)cc(F)c4)NC(=O)Cn4nc(C(F)(F)F)c5c4C(F)(F)[C@@H]4C[C@H]54)c(-c4cccc5c4CNC5=O)cc3s2)C1 [Compound 39, 2-((3bS,4aR)-5,5-difluoro-3-(trifluoromethyl)-3b,4,4a,5-tetrahydro-1H-cyclopropa[3,4]cyclopenta[1,2-c]pyrazol-1-yl)-N—((S)-2-(3,5-difluorophenyl)-1-(2-(3-hydroxy-3-methylazetidin-1-yl)-6-(1-oxoisoindolin-4-yl)thiazolo[4,5-b]pyridin-5-yl)ethyl)acetamide] | 14.6 nM |
| Cn1nc(NS(C)(=O)=O)c2cccc(-c3cc4sc(N5CCC(C)(O)C5)nc4nc3C(Cc3cc(F)cc(F)c3)NC(=O)Cn3nc(C(F)(F)F)c4c3C(F)(F)[C@@H]3C[C@H]43)c21 (stereo partly drawn) [Example 125, 2-((3bS,4aR)-5,5-difluoro-3-(trifluoromethyl)-3b,4,4a,5-tetrahydro-1H-cyclopropa[3,4]cyclopenta[1,2-c]pyrazol-1-yl)-N-(2-(3,5-difluorophenyl)-1-(2-(3-hydroxy-3-methylpyrrolidin-1-yl)-6-(1-methyl-3-(methylsulfonamido)-1H-indazol-7-yl)thiazolo[4,5-b]pyridin-5-yl)ethyl)acetamide] | 17.4 nM |
| Cn1nc(NS(C)(=O)=O)c2cccc(-c3cc4[nH]c(-c5ccccc5)nc4nc3[C@H](Cc3cc(F)cc(F)c3)NC(=O)Cn3nc(C(F)F)c4c3C(F)(F)[C@@H]3C[C@H]43)c21 [Example 95, 2-((3bS,4aR)-3-(difluoromethyl)-5,5-difluoro-3b,4,4a,5-tetrahydro-1H-cyclopropa[3,4]cyclopenta[1,2-c]pyrazol-1-yl)-N—((S)-2-(3,5-difluorophenyl)-1-(6-(1-methyl-3-(methylsulfonamido)-1H-indazol-7-yl)-2-phenyl-1H-imidazo[4,5-b]pyridin-5-yl)ethyl)acetamide] | 67.5 nM |
| NC(=O)c1cc(-c2cc3sc(-c4cncnc4)nc3nc2[C@H](Cc2cc(F)cc(F)c2)NC(=O)Cn2nc(C(F)(F)F)c3c2C(F)(F)[C@@H]2C[C@H]32)ccc1F [Compound 148, 5-(5-((S)-1-(2-((3bS,4aR)-5,5-difluoro-3-(trifluoromethyl)-3b,4,4a,5-tetrahydro-1H-cyclopropa[3,4]cyclopenta[1,2-c]pyrazol-1-yl)acetamido)-2-(3,5-difluorophenyl)ethyl)-2-(pyrimidin-5-yl)thiazolo[4,5-b]pyridin-6-yl)-2-fluorobenzamide] | 90.4 nM |
| CCS(=O)(=O)Nc1nn(C)c2c(-c3cc4sc(NCC(C)(C)O)nc4nc3[C@H](Cc3cc(F)cc(F)c3)NC(=O)Cn3nc(C(F)(F)F)c4c3C(F)(F)[C@@H]3C[C@H]43)cccc12 [Compound 63, 2-((3bS,4aR)-5,5-difluoro-3-(trifluoromethyl)-3b,4,4a,5-tetrahydro-1H-cyclopropa[3,4]cyclopenta[1,2-c]pyrazol-1-yl)-N—((S)-2-(3,5-difluorophenyl)-1-(6-(3-(ethylsulfonamido)-1-methyl-1H-indazol-7-yl)-2-((2-hydroxy-2-methylpropyl)amino)thiazolo[4,5-b]pyridin-5-yl)ethyl)acetamide] | 7.2 nM |
| Cn1nc(NS(C)(=O)=O)c2cccc(-c3cc4[nH]c(C5CC5)nc4nc3[C@H](Cc3cc(F)cc(F)c3)NC(=O)Cn3nc(C(F)(F)F)c4c3C(F)(F)[C@@H]3C[C@H]43)c21 [Example 92, N—((S)-1-(2-cyclopropyl-6-(1-methyl-3-(methylsulfonamido)-1H-indazol-7-yl)-1H-imidazo[4,5-b]pyridin-5-yl)-2-(3,5-difluorophenyl)ethyl)-2-((3bS,4aR)-5,5-difluoro-3-(trifluoromethyl)-3b,4,4a,5-tetrahydro-1H-cyclopropa[3,4]cyclopenta[1,2-c]pyrazol-1-yl)acetamide] | 14.8 nM |
| NC(=O)c1cc(-c2cc3sc(N4CCOCC4)nc3nc2[C@H](Cc2cc(F)cc(F)c2)NC(=O)Cn2nc(C(F)F)c3c2C(F)(F)CCC3(F)F)ccc1F [Compound 3, (S)-5-(5-(1-(2-(3-(difluoromethyl)-4,4,7,7-tetrafluoro-4,5,6,7-tetrahydro-1H-indazol-1-yl)acetamido)-2-(3,5-difluorophenyl)ethyl)-2-morpholinothiazolo[4,5-b]pyridin-6-yl)-2-fluorobenzamide] | 160 nM |
| Cn1nc(NS(C)(=O)=O)c2cccc(-c3cc4sc(C#N)nc4nc3C(Cc3cc(F)cc(F)c3)NC(=O)Cn3nc(C(F)(F)F)c4c3C(F)(F)[C@@H]3C[C@H]43)c21 (stereo partly drawn) [Compound 131, N-(1-(2-cyano-6-(1-methyl-3-(methylsulfonamido)-1H-indazol-7-yl)thiazolo[4,5-b]pyridin-5-yl)-2-(3,5-difluorophenyl)ethyl)-2-((3bS,4aR)-5,5-difluoro-3-(trifluoromethyl)-3b,4,4a,5-tetrahydro-1H-cyclopropa[3,4]cyclopenta[1,2-c]pyrazol-1-yl)acetamide] | 28.1 nM |
| NC(=O)c1cc(-c2cc3sc(N4CCN(c5ccc(C(F)(F)F)cc5)CC4)nc3nc2[C@H](Cc2cc(F)cc(F)c2)NC(=O)Cn2nc(C(F)(F)F)c3c2C(F)(F)[C@@H]2C[C@H]32)ccc1F [Compound 141, 5-(5-((S)-1-(2-((3bS,4aR)-5,5-difluoro-3-(trifluoromethyl)-3b,4,4a,5-tetrahydro-1H-cyclopropa[3,4]cyclopenta[1,2-c]pyrazol-1-yl)acetamido)-2-(3,5-difluorophenyl)ethyl)-2-(4-(4-(trifluoromethyl)phenyl)piperazin-1-yl)thiazolo[4,5-b]pyridin-6-yl)-2-fluorobenzamide] | 1810 nM |
| Cn1nc(N)c2cccc(-c3cc4sc(N5CC(C)(O)C5)nc4nc3[C@H](Cc3cc(F)cc(F)c3)NC(=O)Cn3nc(C(F)F)c4c3C(F)(F)[C@@H]3C[C@H]43)c21 [Compound 59, N—((S)-1-(6-(3-amino-1-methyl-1H-indazol-7-yl)-2-(3-hydroxy-3-methylazetidin-1-yl)thiazolo[4,5-b]pyridin-5-yl)-2-(3,5-difluorophenyl)ethyl)-2-((3bS,4aR)-3-(difluoromethyl)-5,5-difluoro-3b,4,4a,5-tetrahydro-1H-cyclopropa[3,4]cyclopenta[1,2-c]pyrazol-1-yl)acetamide] | 16.3 nM |
| O=C(Cn1nc(C(F)(F)F)c2c1C(F)(F)[C@@H]1C[C@H]21)N[C@@H](Cc1cc(F)cc(F)c1)c1nc2nc(N3CCN(c4ccncc4)CC3)sc2cc1-c1ccc2c(c1)C(=O)NC2 [Compound 36, 2-((3bS,4aR)-5,5-difluoro-3-(trifluoromethyl)-3b,4,4a,5-tetrahydro-1H-cyclopropa[3,4]cyclopenta[1,2-c]pyrazol-1-yl)-N—((S)-2-(3,5-difluorophenyl)-1-(6-(3-oxoisoindolin-5-yl)-2-(4-(pyridin-4-yl)piperazin-1-yl)thiazolo[4,5-b]pyridin-5-yl)ethyl)acetamide] | 28.7 nM |
| C[C@H]1CN(c2nc3nc([C@H](Cc4cc(F)cc(F)c4)NC(=O)Cn4nc(C(F)(F)F)c5c4C(F)(F)[C@@H]4C[C@H]54)c(-c4cccc5c(NS(C)(=O)=O)nn(C)c45)cc3s2)CCN1 [Example 88, 2-((3bS,4aR)-5,5-difluoro-3-(trifluoromethyl)-3b,4,4a,5-tetrahydro-1H-cyclopropa[3,4]cyclopenta[1,2-c]pyrazol-1-yl)-N—((S)-2-(3,5-difluorophenyl)-1-(6-(1-methyl-3-(methylsulfonamido)-1H-indazol-7-yl)-2-((S)-3-methylpiperazin-1-yl)thiazolo[4,5-b]pyridin-5-yl)ethyl)acetamide] | 10.3 nM |
| COCc1nc2nc([C@H](Cc3cc(F)cc(F)c3)NC(=O)Cn3nc(C(F)(F)F)c4c3C(F)(F)[C@@H]3C[C@H]43)c(-c3ccc(Cl)c4c(NS(C)(=O)=O)nn(C)c34)cc2[nH]1 [Example 101, N—((S)-1-(6-(4-chloro-1-methyl-3-(methylsulfonamido)-1H-indazol-7-yl)-2-(methoxymethyl)-1H-imidazo[4,5-b]pyridin-5-yl)-2-(3,5-difluorophenyl)ethyl)-2-((3bS,4aR)-5,5-difluoro-3-(trifluoromethyl)-3b,4,4a,5-tetrahydro-1H-cyclopropa[3,4]cyclopenta[1,2-c]pyrazol-1-yl)acetamide] | 2.1 nM |
| CC(C)(C)OC(=O)N1CCC[C@H]1c1nc(-c2ccc(C#Cc3nc4nc([C@H](Cc5cc(F)cc(F)c5)NC(=O)Cn5nc(C(F)F)c6c5C(F)(F)CCC6(F)F)c(-c5ccc(F)c(C(N)=O)c5)cc4s3)cc2)c[nH]1 [Compound 137, tert-butyl (S)-2-(4-(4-((6-(3-carbamoyl-4-fluorophenyl)-5-((S)-1-(2-(3-(difluoromethyl)-4,4,7,7-tetrafluoro-4,5,6,7-tetrahydro-1H-indazol-1-yl)acetamido)-2-(3,5-difluorophenyl)ethyl)thiazolo[4,5-b]pyridin-2-yl)ethynyl)phenyl)-1H-imidazol-2-yl)pyrrolidine-1-carboxylate] | 409 nM |
| NC(=O)c1cc(-c2cc3sc(N4CCN(c5nc6ccccc6[nH]5)CC4)nc3nc2[C@H](Cc2cc(F)cc(F)c2)NC(=O)Cn2nc(C(F)(F)F)c3c2C(F)(F)[C@@H]2C[C@H]32)ccc1F [Compound 45, 5-(2-(4-(1H-benzo[d]imidazol-2-yl)piperazin-1-yl)-5-((S)-1-(2-((3bS,4aR)-5,5-difluoro-3-(trifluoromethyl)-3b,4,4a,5-tetrahydro-1H-cyclopropa[3,4]cyclopenta[1,2-c]pyrazol-1-yl)acetamido)-2-(3,5-difluorophenyl)ethyl)thiazolo[4,5-b]pyridin-6-yl)-2-fluorobenzamide] | 144 nM |
| Cc1c(-c2cc3sc(N4CC(C)(O)C4)nc3nc2[C@H](Cc2cc(F)cc(F)c2)NC(=O)Cn2nc(C(F)(F)F)c3c2C(F)(F)[C@@H]2C[C@H]32)ccc2n[nH]c(=O)n12 [Compound 49, 2-((3bS,4aR)-5,5-difluoro-3-(trifluoromethyl)-3b,4,4a,5-tetrahydro-1H-cyclopropa[3,4]cyclopenta[1,2-c]pyrazol-1-yl)-N—((S)-2-(3,5-difluorophenyl)-1-(2-(3-hydroxy-3-methylazetidin-1-yl)-6-(5-methyl-3-oxo-2,3-dihydro-[1,2,4]triazolo[4,3-a]pyridin-6-yl)thiazolo[4,5-b]pyridin-5-yl)ethyl)acetamide] | 31.7 nM |
